# Experimental data reported in patent publication US10946020B2, “Compositions and methods for treating cancer” (University of Virginia Patent Foundation, priority 2016, dated 2021).
# What was measured:
# DGKα = DGKα (Homo sapiens, UniProt P23743); test: DGKα kinase assay with liposomes and purified enzyme; type: biochemical; conditions: purified enzyme, liposomes; highest drug concentration 100 μM
# Description: To obtain purified protein, 293T cells were cultured in DMEM containing 5% fetal calf serum and 1% penicillin/streptomycin (GIBCO™, Thermo Fisher Scientific, Waltham, Mass., United States of America). The cells were transiently transfected with 40 μg of pcDNA3-FLAG-DGKα plasmid/plate. The transfection was done using lipofectamine 2000 at a 2:1 ratio of DNA:lipofectamine. The cells were harvested and homogenized in lysis buffer (10 mM Na2HPO4, pH 7.4, 50 mM β-glucopyranose, 50 mM NaF, 1 mM EDTA, 1 mM EGTA, 0.02% Triton X-100, phenylmethylsulfonyl fluoride, leupeptine, and pepstatin). The cell homogenate was centrifuged at 16,000×g at 4° C. for 10 minutes. The supernatant was immunoprecipitated with anti-FLAG (M2) beads for 2 hours at 4° C. The beads were packed onto a screening column and washed five times with the lysis buffer. The protein was eluted with five successive 200 μl fractions of 0.5 mg/ml of FLAG peptide (LifeTein, LLC, Somerset, N.J., United States of America). The elution fractions containing DGKα were combined and dialyzed three times against 10 mM Na2HPO4 (pH 7.4), and 50 mM β-glucopyranose, 50 mM NaF, 1 mM EDTA, and 1 mM EGTA. The purified DGKs were quantified with UV absorbance and by comparing DGKα bands with bovine serum albumin standards on Coomassie-blue stained SDS-PAGE gels. […]
# [1] = system: U251 GBM and VMM39 melanoma cell lines; test: Annexin V cell death assay (flow cytometry); type: cell-based, human; conditions: compared to controls
# Description: (§1) Single dye controls were used for compensation. […] Experiments were repeated several times per cell type.
# To determine the mechanism of ritanserin cytotoxicity, ritanserin-treated cells were assayed for Annexin V-positivity as well as cellular permeability (with DNA dye 7-AAD).
# NF-κB = NF-κB luciferase assay; type: cell-based; conditions: two mesenchymal GBM cell lines (G2, G88)
# Description: (§2) Since radiation is a frontline treatment for GBM, the combination of ritanserin treatment and radiotherapy was tested. The radiosensitization of two different mesenchymal GBM stem cells, including a radioresistant cell type (i.e., G88 cells) is shown in FIGS. 9A and 9B. […] Chou-Talalay analysis indicated synergy. Ritanserin treatment also appears to affect downstream regulators of the radiation response. NF-κB has been indicated as a factor in radioresistance. Thus, the effect of ritanserin on NF-κB expression was also measured in two mesenchymal GBM cell lines using a NF-κB luciferase assay.
# [2] = system: lung (A549) and pancreatic (MPanc-96) carcinoma cells; test: ritanserin sensitivity after epithelial-mesenchymal transition; type: cell-based; conditions: EMT induced with TNF-alpha and TGF-beta; 15 μM (lung), 10 μM (pancreatic)
# From the text: Thus it appears that the mesenchymal cancer phenotype can be preferentially targeted with ritanserin in GBM and in other cancers, as well.
# p53 S15 = test: immunoblot of p53 S15 phosphorylation; type: cell-based, human; conditions: extracts from U251 and VMM39 cell lines
# Description: (§3) Immunoblotting was performed as previously described. […] Antibodies were obtained from Cell Signaling Technology (Danvers, Mass., United States of America). Cells were lysed 24-72 hours post-treatment in 1× lysis buffer. The Human Phospho-Kinase Array kit (R&D Systems, Minneapolis, Minn., United States of America) was used to identify ritanserin targets. Immunoblots were performed with multiple replicates.
# Decreased p53 S15 can cause chemosensitization to other cytotoxic reagents. p53 is hyper-phosphorylated after serine 15 phosphorylation in DNA-damaged cells as an […], pro-transcriptional pathway, and antagonism of S15 phosphorylation is associated with increasing sensitivity to DNA-damaging agents. See Loughery et al., 2014; and Wittlinger et al., 2007. Immunoblots of extracts from both U251 and VMM39 cell lines confirmed that ritanserin decreases S15 phosphorylation.
# [3] = previous studies; cited from earlier work
# RhoA = RhoA ELISA; type: cell-based; conditions: G2 and G88 mesenchymal GBM cells
# From the text: (§4) Further, based on increases in unprenylated ras-related protein Rap1A in various GBM cells, it appears that ritanserin inhibits geranylgeranyltransferase type 1 (GGTase I).
# [4] = system: mesenchymal GBM cell lines; test: ritanserin treatment of 11 GBM cell lines of various sub-types; type: cell-based; conditions: in vitro
# From the text: (§5) Glioblastomas can be categorized into four different subtypes based on gene expression patterns and clinical characterization. […] In particular, median survival increased from 17.5 days to 28.5 days in mice with xenografts from a G88 mesenchymal GBM stem cell line.
# GL261 GBM line = test: cell growth suppression, live cell count; type: cell-based; conditions: Mus musculus, GL261, 96 h; single dose, live cells four days post-treatment
# Description: as §1
# (§6) Several cancer cell lines were tested in vitro to determine whether ritanserin was cytotoxic. A single dose of ritanserin was sufficient to suppress cell growth in GBM lines U251 (human), GL261 (mouse), and JWL578 (human GBM stem cell line) with IC50s 5-10 μM, very similar to previous results with R59022. See also, Dominguez et al., 2013. […] Data from alamarBlue assays, a measure of cellular viability, provided similar IC50s. Immortalized astrocytes were viable above 20 μM ritanserin.
# [5] = system: JWL578 GBM stem cell line; test: cell growth suppression, live cell count; type: cell-based; conditions: Homo sapiens, 96 h; single dose, live cells four days post-treatment
# Description: as §1, §6
# U251 GBM line = test: cell growth suppression, live cell count; type: cell-based; conditions: Homo sapiens, U-251, 96 h; single dose, live cells four days post-treatment
# Description: as §1, §6
# [6] = system: U251 human glioblastoma cells; test: orthotopic intracranial U251 xenograft survival; type: in vivo, athymic nu/nu mice; conditions: 50 mg/kg daily oral gavage, started one week after injection
# Description: (§7) Intracranial surgical implantation of tumor was as previously described. See Kefas et al., 2013. In brief, 400,000 U251 human glioblastoma or 50,000 GL261 mouse glioma suspended in 4 μL of serum-free DMEM were injected into anesthetized mice through a burr hole placed […] to the bregma. Treatment for 8-9 mice per group began 6-7 days post-tumor implantation via oral gavage and continued daily. Magnetic resonance images were taken at 3 weeks post-tumor implantation to assess tumor volume, and volumes were calculated as previously described. See Kefas et al., 2013. Mice were euthanized at 20% weight loss or with the first sign of neurological impairment.
# Athymic nu/nu mice were injected with U251 cells and one week later began daily oral gavage treatment.
# [7] = system: G2 mesenchymal GBM stem cell line; test: intracranial G2 mesenchymal GBM stem cell xenograft survival; type: in vivo, mice; conditions: 50 mg/kg daily oral gavage vs vehicle
# [8] = molecular target: serotonin (5-hydroxytryptamine, 5-HT) subtype 5-HT2; conditions: read-out: Ki as 5-HT2 antagonist; cited from earlier work
# Immortalized astrocytes = test: viability of immortalized astrocytes; type: cell-based
# From the text: as §1
# mTOR promoter = mTOR promoter reporter dual luciferase assay; type: cell-based, human; conditions: U251 and VMM39, 20 μM ritanserin vs vehicle
# Description: (§8) mTOR promoter reporter-RLuc or HIF-1α binding site-FLuc plasmids were transfected into serum-starved U251 and VMM39 one day after cell plating at 60-80% confluency using Fugene HD at 3:1 (Promega Corporation, Fitchburg, Wis., United States of America). Cells were fed several hours post-transfection and ritanserin was added. Cells were lysed after 36-48 hours and assayed with the Dual-Luciferase Reporter assay system kit (Promega Corporation, Fitchburg, Wis., United States of America) and Promega GloMax® 20/20 luminometer (Promega Corporation, Fitchburg, Wis., United States of America). Results were double-normalized using control empty vectors pRL and pGL3.
# (§9) To compare to previous findings that DGKα inhibition affects mTOR transcription, U251 and VMM39 were transfected with an mTOR promoter reporter and treated with ritanserin or vehicle. […] Ritanserin therefore appears to mimic R59022's effects on known DGKα targets in the mTOR and HIF-1α signaling pathways. See Dominguez et al., 2013.
# [9] = system: P70 S6K phosphorylation at T389/T421; test: dot-blot phospho-proteomics assay in U251; type: cell-based, human; conditions: U251, 15 μM ritanserin, lysed at 24 hours
# Description: as §3
# (§10) A dot-blot proteomics assay was used to investigate ritanserin downstream targets. U251 treated with 15 μM ritanserin were lysed at 24 hours. Several target proteins were substantially changed with ritanserin treatment. HSP60 decreased to 10% of baseline. Heat shock proteins are molecular targets in glioblastoma, and their loss prevents the unfolded protein response. See Ampie et al., 2015. HIF-1a and possibly mTOR up-regulate HSP60. P70 S6K phosphorylation at T389/T421 was decreased, as expected given DGKα activation of mTOR.
# HSP60 = test: dot-blot phospho-proteomics assay in U251; type: cell-based, human; conditions: U251, 15 μM ritanserin, lysed at 24 hours
# Description: as §3, §10
# HIF-1α = HIF-1α binding site reporter dual luciferase assay; type: cell-based, human; conditions: U251, 20 μM ritanserin vs vehicle
# Description: as §8, §9
# [10] = previous studies (Leysen et al., 1985); cited from earlier work
# B16 melanoma line = test: cell growth suppression, live cell count; type: cell-based; conditions: Mus musculus, B16, 96 h; single dose, live cells four days post-treatment
# GL261 mouse glioma cells = test: syngeneic intracranial GL261 glioma model; type: in vivo, C57BL/6 mice
# Description: as §7
# (§11) DGKα inhibition decreases T-cell anergy. Thus, it is believed that a syngeneic, immunocompetent tumor model could show a stronger survival benefit. GL261 mouse glioma cells were implanted intracranially and treatment begun six days later. Ritanserin improved median survival to 64 days versus 36 days with vehicle. […] Ritanserin treatment also yielded decreases in tumor size and prolonged survival in other cell lines and xenograft models.
# VMM39 melanoma line = test: cell growth suppression, live cell count; type: cell-based; conditions: Homo sapiens, VMM39, 96 h; single dose, live cells four days post-treatment
# [11] = system: VMM39 human melanoma cells; test: subcutaneous melanoma tumor model; type: in vivo, athymic nu/nu mice; conditions: 50 mg/kg, compared to vehicle and 10 mg/kg ritanserin
# Description: For subcutaneous tumors, 250,000 VMM39 human melanoma cells were injected subcutaneously into the left flank. After two weeks, tumors were measured daily using electronic calipers and tumor volume calculated. Mice were euthanized when tumors were greater than […] in any dimension or greater than 1000 mm^3 in volume.
# as §11
# [12] = system: mesenchymal GBM stem cells (G2, G88); test: radiosensitization, soft agar colony assay; type: cell-based; conditions: 1.25 μM ritanserin, 4 Gy radiation, colonies after two weeks
# Description: as §2
# [13] = system: geranylgeranyltransferase type 1 (GGTase I); test: unprenylated Rap1A immunoblot; type: cell-based; conditions: various GBM cells
# From the text: as §4
# [14] = system: G88 mesenchymal GBM stem cell line; test: intracranial G88 mesenchymal GBM stem cell xenograft survival; type: in vivo, mice; conditions: 50 mg/kg daily, started six days after implantation; vehicle 17.5 days
# Description: as §7, §5
# DGKα, sequence (P23743 whole entry, species assumed): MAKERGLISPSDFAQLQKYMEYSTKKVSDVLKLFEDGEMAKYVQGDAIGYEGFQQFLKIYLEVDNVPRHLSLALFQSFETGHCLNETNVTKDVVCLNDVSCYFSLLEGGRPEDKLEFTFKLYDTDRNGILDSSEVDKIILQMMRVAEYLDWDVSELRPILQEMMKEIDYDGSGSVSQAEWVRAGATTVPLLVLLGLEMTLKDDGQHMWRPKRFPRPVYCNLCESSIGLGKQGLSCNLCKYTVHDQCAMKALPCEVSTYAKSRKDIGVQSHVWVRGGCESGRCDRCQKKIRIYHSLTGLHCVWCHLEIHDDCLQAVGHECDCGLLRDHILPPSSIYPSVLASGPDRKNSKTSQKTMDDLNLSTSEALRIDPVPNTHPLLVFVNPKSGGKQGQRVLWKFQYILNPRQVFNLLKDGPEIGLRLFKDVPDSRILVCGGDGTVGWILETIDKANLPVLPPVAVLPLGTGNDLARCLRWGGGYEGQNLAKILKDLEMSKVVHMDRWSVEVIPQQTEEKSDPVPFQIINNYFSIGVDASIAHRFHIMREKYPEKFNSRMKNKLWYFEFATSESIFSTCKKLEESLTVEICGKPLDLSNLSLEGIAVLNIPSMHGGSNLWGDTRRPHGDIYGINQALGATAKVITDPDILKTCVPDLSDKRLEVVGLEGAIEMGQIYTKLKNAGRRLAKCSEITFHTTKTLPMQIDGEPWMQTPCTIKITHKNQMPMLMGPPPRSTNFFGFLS
structure (smiles),measurement,setting,value
Cc1nc2sccn2c(=O)c1CCN1CCC(=C(c2ccccc2)c2ccc(F)cc2)CC1 [R59022],IC50,DGKα,20 µM
"Cc1nc2sccn2c(=O)c1CCN1CCC(=C(c2ccc(F)cc2)c2ccc(F)cc2)CC1 [ritanserin, 6-[2-[4-[bis(4-fluorophenyl)methylidene]piperidin-1-yl]ethyl]-7-methyl-[1,3]thiazolo[3,2-a]py-rimidin-5-one]",Annexin V positivity,[1],increased Annexin V
same,NF-κB expression,NF-κB,decreased NF-κB expression
same,sensitivity to ritanserin after EMT,[2],more sensitive
same,p53 S15 phosphorylation,p53 S15,decreases
same,oral bioavailability,[3],orally bioavailable
same,RhoA expression,RhoA,inhibit RhoA expression
same,sensitivity of mesenchymal GBM cell lines relative to other subtypes,[4],three to four times more sensitive
same,IC50,GL261 GBM line,5 to 10 µM
same,IC50,[5],5 to 10 µM
same,IC50,U251 GBM line,5 to 10 µM
same,survival,[6],increased survival significantly
same,median survival,[7],increased
same,Ki,[8],0.00039 µM
same,ritanserin concentration at which astrocytes were viable,Immortalized astrocytes,above 20 μM
same,mTOR promoter activity,mTOR promoter,strongly decreased
same,P70 S6K phosphorylation at T389/T421,[9],decreased
same,HSP60 level,HSP60,10 % of baseline
same,HIF-1α reporter activity,HIF-1α,loss of HIF-1α reporter activity
same,brain exposure,[10],reach the brain in meaningful concentrations
same,IC50,B16 melanoma line,10 to 15 µM
same,median survival,"GL261 mouse glioma cells; 50 mg/kg daily oral, started six days after implantation, vehicle 36 days",64 days
same,tumor size by magnetic resonance imaging,"GL261 mouse glioma cells; three weeks after implantation, vs vehicle",decreased tumor size
same,IC50,VMM39 melanoma line,10 to 15 µM
same,IC50,DGKα,9 µM
same,tumor formation,[11],delayed tumor formation
same,"radiosensitization, colony number",[12],clear radiosensitization effect
same,GGTase I inhibition inferred from unprenylated Rap1A,[13],inhibits
same,median survival,[14],28.5 days
